Experiment in all cases: relative viability (nuclei count vs DMSO), 5 days (fraction); higher = more cells survive
Compound in the assay “PAC-1 + Tozasertib”: C=CCc1cccc(/C=N/NC(=O)CN2CCN(Cc3ccccc3)CC2)c1O [PAC-1] + Cc1cc(Nc2cc(N3CCN(C)CC3)nc(Sc3ccc(NC(=O)C4CC4)cc3)n2)n[nH]1 [Tozasertib] (partner 0.1 µM)
A digest of the protocol: (§1)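 One day after seeding in 1536-well plates, lung cancer cell lines were dosed by pin tool. Dosing was either single-drug or a fixed anchor-drug dose plus five library-drug doses (not always all listed) in √10 steps. After 5 days, nuclei were stained in one fix-and-stain step and counted on 4× images, and relative viability is the nuclei count of treated wells over that of vehicle wells, given as the median of duplicate plates.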

Compound in the assay “PAC-1 + Dasatinib”: C=CCc1cccc(/C=N/NC(=O)CN2CCN(Cc3ccccc3)CC2)c1O [PAC-1] + Cc1nc(Nc2ncc(C(=O)Nc3c(C)cccc3Cl)s2)cc(N2CCN(CCO)CC2)n1 [Dasatinib] (partner 0.075 µM)
In a few lines:
as §1

Compound in the assay “Ibrutinib + Dasatinib”: C=CC(=O)N1CCC[C@@H](n2nc(-c3ccc(Oc4ccccc4)cc3)c3c(N)ncnc32)C1 [Ibrutinib] + Cc1nc(Nc2ncc(C(=O)Nc3c(C)cccc3Cl)s2)cc(N2CCN(CCO)CC2)n1 [Dasatinib] (partner 0.075 µM)
In a few lines: as §1

Compound in the assay “Ibrutinib + Decitabine”: C=CC(=O)N1CCC[C@@H](n2nc(-c3ccc(Oc4ccccc4)cc3)c3c(N)ncnc32)C1 [Ibrutinib] + Nc1ncn([C@H]2C[C@H](O)[C@@H](CO)O2)c(=O)n1 [Decitabine] (partner 2 µM)
A digest of the protocol: as §1

On to SK-MES-1, for which the relative viability with PAC-1 + Tozasertib (first compound 0.02 µM) came to 0.9; in the assay with PAC-1 + Tozasertib (first compound 0.06325 µM) it was 0.916; with PAC-1 + Tozasertib (first compound 0.2 µM), 0.892; with PAC-1 + Tozasertib (first compound 2 µM), 0.916; with PAC-1 + Dasatinib (first compound 0.02 µM), 0.359; in the assay with PAC-1 + Dasatinib (first compound 0.06325 µM), 0.516. The relative viability was found to be 0.371 in the assay with PAC-1 + Dasatinib (first compound 0.2 µM); 0.401 in the assay with PAC-1 + Dasatinib (first compound 2 µM); 0.281 in the assay with Ibrutinib + Dasatinib (first compound 0.005 µM); 0.211 with Ibrutinib + Dasatinib (first compound 0.01581 µM); 0.194 with Ibrutinib + Dasatinib (first compound 0.05 µM); 0.38 with Ibrutinib + Dasatinib (first compound 0.1581 µM). Further, the relative viability in the assay with Ibrutinib + Dasatinib (first compound 0.5 µM) is 0.178; with Ibrutinib + Decitabine (first compound 0.005 µM) it was 0.39; with Ibrutinib + Decitabine (first compound 0.01581 µM), 0.359; with Ibrutinib + Decitabine (first compound 0.05 µM), 0.335; with Ibrutinib + Decitabine (first compound 0.1581 µM), 0.364; with Ibrutinib + Decitabine (first compound 0.5 µM) it was 0.359.

For the origin of these results see the supplement of paper PMC10307832.
